Values quoted from earlier work as cited in patent US20040112375A1, “Predicting outcome of hyperbaric oxygen therapy treatment with nitric oxide bioavailability” (priority 2002, published 2004).

Row | Compound | fall of plasma isoprostane levels (diabetic men, 600 mg twice daily for seven days) | effect on isoprostane levels in biological fluids (in vivo)
1 | 2-(2,3-dihydro-5-acetoxy-4,6,7-trimethylbenzofuranyl) acetic acid [raxofelast] | 50% | 
2 | Cc1c(C)c2c(c(C)c1O)CC[C@@](C)(CCC[C@H](C)CCC[C@H](C)CCCC(C)C)O2 [alpha tocopherol] |  | reduce such isoprostane levels
